# Assay results reported in patent publication US10293004B2, “Butyrate-producing bacterium and use thereof” (KABUSHIKI KAISHA YAKULT HONSHA, priority 2014, dated 2019).
# Key:
# mouse C57BL/6J = assay: Single oral dose test of YIT 12355 to mouse given indigestible saccharide; format: in vivo
# Protocol: Mice were acclimatized and raised with F2 feed for 1 week and then divided into 4 groups such that the average body weight was almost equal among these groups. A control diet (Table 12) was administered thereto for 1 week. Then, the control diet was administered to the control group (−/− group) and the AH/− group for 2 weeks while purified feed containing maltitol (MAL-containing diet) was administered to the −/MAL group and the AH/MAL group for 2 weeks. A live cell suspension of YIT 12355 was administered at a single dose using a probe after the administration of the control diet for 1 week. At the final day of the test, each mouse was dissected, and the cecal contents were recovered. The cecal contents were subjected to the cell count measurement of YIT 12355. • Test material: Maltitol (5% mixed feed administration) • Administered bacterial strain: YIT 12355 • Animal species: Mouse C57BL/6J (4 weeks old; CLEA Japan, Inc.) • Group configuration: 7 mice×4 groups The bacterial solution (viable count: 3.1×10^9 cfu/mL, total cell count: 1.9×10^10 cells/mL) prepared in the preceding paragraph 2) was orally administered at a single dose of 0.2 mL (viable count: 6.2×10^8 cfu/mouse, total cell count: 3.8×10^9 cells/mouse) to each mouse using a probe. To the control group and the −/MAL group, 0.2 mL of physiological saline was administered instead of the bacterial solution. […] Then, the cecal contents were recovered. The cecal contents were diluted 10-fold with PBS and subjected to DNA extraction. DNA was extracted by the bead-phenol method described in the paragraph 4)a) of Example 5 from the 10-fold diluted solution of the intestinal tract contents. The cell count of YIT 12355 was measured by quantitative PCR using the obtained DNA as a template and the bacterial species-specific primers described in the paragraph 4)a) of Example 5. After fixation of a portion of the 10-fold diluted solution of the intestinal tract contents in a 4% solution of paraformaldehyde in PBS, the total cell count was measured by the DAPI counting method. The cell count of YIT 12355 was divided by the total cell count to calculate an occupancy (%). (Occupancy of YIT 12355) (%)=(Cell count of YIT 12355/Total cell count)×100 (Expression 5)
# [1] = Production of butyrate by each bacterial strain from L-sorbose and D-xylitol (ion-exclusion HPLC); conditions: 24 hours, minus PYA blank
# Protocol: A frozen stock solution of each bacterial strain (a 10% (w/v) skim milk-2% sodium glutamate solution in which bacterial cells were suspended) (cell count: 2.0 to 5.5×10^10 cells/mL) was thawed, and the solution was inoculated at 1% to 4 mL of a PY liquid medium supplemented with 33 mM sodium acetate and 0.5 (w/v) % glucose (PYGA medium), followed by anaerobic culture at 37° C. for 24 hours. After the culture, the culture solution was inoculated at 1% to a fresh PYGA medium, followed by anaerobic culture at 37° C. for 24 hours. After the culture, the turbidity (OD660) of the culture solution was measured. Then, the culture solution was inoculated at 1% to a PY medium containing 0.5 (w/v) % L-sorbose or D-xylitol and 33 mM sodium acetate (the medium containing L-sorbose: PYSA, and the medium containing D-xylitol: PYXA), followed by anaerobic culture at 37° C. for 24 hours. Then, the turbidity (OD660) was measured.
# After the completion of the culture, the organic acid concentration in the culture solution was quantified by ion-exclusion HPLC. In this operation, a culture solution in a PY medium supplemented with sodium acetate but without L-sorbose or D-xylitol (PYA medium) was used as a blank.
# (HPLC Analysis Conditions) • Eluent: 15 mM perchloric acid-7% acetonitrile • pH adjuster: 15 mM perchloric acid-60 mM • tris(hydroxymethyl)aminomethane-7% acetonitrile • Separation column: Organic acid analysis column RSpak KC- • 811×2 (manufactured by Showa Denko K.K.) • Column temperature: 42° C. • Injected sample volume: 10 μL • Flow rate: 1.0 mL/min • Analysis time: 35 min • Detector: Waters 432 electric conductivity detector • Cell temperature: 45° C.
# The amount of butyrate produced was calculated according to (Expression 1). Amount of butyrate produced=(Amount of butyrate produced by culture for 24 hours in a PYSA or PYXA medium)−(Amount of butyrate produced by culture for 24 hours in a PYA medium) (Expression 1)
# [2] = summary in words of Table 13, single dose
substance,measurement,setting,value
A. hadrus (Eubacterium hadrum) YIT 12355 (NITE BP-01832),Total cell count,"mouse C57BL/6J; cecum, DAPI counting method, single oral dose",10.9 ± 0.4 log10 (cells/g contents)
same,"Cell count, A. hadrus YIT 12355","mouse C57BL/6J; cecum, quantitative PCR, single oral dose",8.0 ± 0.3 log10 (cells/g contents)
same,Occupancy,"mouse C57BL/6J; cecum, ratio to total cell count, single oral dose",0.3%
same,cell count of YIT 12355,mouse C57BL/6J; [2],largely changes neither
same,occupancy of YIT 12355,mouse C57BL/6J; [2],largely changes neither
same,Amount of butyrate produced,"[1]; D-Xylitol 0.5 (w/v) %, PYXA medium",31.9 mmol/L
same,Amount of butyrate produced,"[1]; L-Sorbose 0.5 (w/v) %, PYSA medium",15.4 mmol/L
